Measured values reported in ChEMBL document CHEMBL1137565, “Discovery of novel 8-azoniabicyclo[3.2.1]octane carbamates as muscarinic acetylcholine receptor antagonists” (Bioorg Med Chem Lett, 2007).

How the values were obtained:
[1] = molecular target: T1, Muscarinic acetylcholine receptor M1 (Homo sapiens, UniProt P11229); assay: Antagonist activity at cloned muscarinic M1 receptor expressed in CHO cells by measuring calcium mobilization; type: functional, cell-based
T1 sequence (P11229 whole entry): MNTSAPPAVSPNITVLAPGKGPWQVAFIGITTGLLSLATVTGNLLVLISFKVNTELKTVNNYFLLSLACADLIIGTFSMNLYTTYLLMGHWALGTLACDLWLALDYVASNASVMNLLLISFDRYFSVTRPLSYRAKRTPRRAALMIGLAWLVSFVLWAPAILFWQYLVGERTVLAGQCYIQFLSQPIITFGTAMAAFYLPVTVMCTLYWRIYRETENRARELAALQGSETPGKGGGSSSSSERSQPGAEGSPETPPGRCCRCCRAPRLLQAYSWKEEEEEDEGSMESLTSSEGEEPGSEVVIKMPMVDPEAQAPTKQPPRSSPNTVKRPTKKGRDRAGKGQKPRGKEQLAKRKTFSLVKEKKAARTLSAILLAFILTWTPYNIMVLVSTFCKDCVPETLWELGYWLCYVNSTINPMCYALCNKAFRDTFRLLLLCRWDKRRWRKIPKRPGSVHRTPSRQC

[2] = molecular target: T2, Muscarinic acetylcholine receptor M2 (Homo sapiens, UniProt P08172); assay: Antagonist activity at cloned muscarinic M2 receptor expressed in CHO cells by measuring calcium mobilization; type: functional, cell-based
T2 sequence (P08172 whole entry): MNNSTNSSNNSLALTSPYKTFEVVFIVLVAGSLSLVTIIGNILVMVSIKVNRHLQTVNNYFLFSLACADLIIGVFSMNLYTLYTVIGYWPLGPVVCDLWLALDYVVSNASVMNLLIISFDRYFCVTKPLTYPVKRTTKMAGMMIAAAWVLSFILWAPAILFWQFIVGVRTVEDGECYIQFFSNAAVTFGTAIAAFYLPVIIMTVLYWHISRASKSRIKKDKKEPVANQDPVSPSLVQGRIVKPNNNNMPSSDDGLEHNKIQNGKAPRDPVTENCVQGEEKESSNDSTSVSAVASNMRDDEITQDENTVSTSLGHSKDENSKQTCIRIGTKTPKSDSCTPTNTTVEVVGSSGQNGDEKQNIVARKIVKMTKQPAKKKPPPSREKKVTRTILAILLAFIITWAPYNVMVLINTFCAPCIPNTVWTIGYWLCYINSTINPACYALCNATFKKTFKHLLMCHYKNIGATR

Mus musculus [3] = species on record: Mus musculus; assay: Effect on metacholine-induced bronchoconstriction in mouse assessed as bronchoprotection at 5 ug after 15 mins; type: functional
Mus musculus [4] = species on record: Mus musculus; assay: Effect on metacholine-induced bronchoconstriction in mouse assessed as bronchoprotection at 5 ug after 5 hrs; type: functional
[5] = molecular target: Muscarinic acetylcholine receptors; M2 & M3 (Homo sapiens) (UniProt P20309+P08172); assay: Selectivity for cloned muscarinic M3 receptor over cloned muscarinic M2 receptor
[6] = molecular target: Muscarinic acetylcholine receptor M1 and M3 (Homo sapiens) (UniProt P20309+P11229); assay: Selectivity for cloned muscarinic M3 receptor over cloned muscarinic M1 receptor
Muscarinic acetylcholine receptor M1 and M3 (Homo sapiens), sequence (P20309 whole entry, looked up, one chain of several): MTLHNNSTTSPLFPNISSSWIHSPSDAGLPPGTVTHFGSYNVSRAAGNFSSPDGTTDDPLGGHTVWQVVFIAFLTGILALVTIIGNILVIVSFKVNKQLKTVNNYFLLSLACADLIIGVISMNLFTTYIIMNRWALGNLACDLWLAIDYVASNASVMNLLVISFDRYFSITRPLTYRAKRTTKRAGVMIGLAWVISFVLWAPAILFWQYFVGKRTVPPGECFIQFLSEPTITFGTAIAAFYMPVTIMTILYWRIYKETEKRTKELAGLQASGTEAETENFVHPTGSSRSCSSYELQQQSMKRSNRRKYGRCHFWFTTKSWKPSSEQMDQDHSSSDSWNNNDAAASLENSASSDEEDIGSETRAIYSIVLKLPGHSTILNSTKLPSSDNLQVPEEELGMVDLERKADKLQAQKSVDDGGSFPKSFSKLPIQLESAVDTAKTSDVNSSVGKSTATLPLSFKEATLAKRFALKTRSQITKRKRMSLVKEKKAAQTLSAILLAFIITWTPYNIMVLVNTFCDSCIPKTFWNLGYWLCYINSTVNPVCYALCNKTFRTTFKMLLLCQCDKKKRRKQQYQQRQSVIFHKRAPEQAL

Mus musculus [7] = species on record: Mus musculus; assay: Effect on metacholine-induced bronchoconstriction in mouse assessed as bronchoprotection at 5 ug after 24 hrs; type: functional
[8] = molecular target: Muscarinic acetylcholine receptor M3 (Homo sapiens, UniProt P20309); assay: Antagonist activity at cloned muscarinic M3 receptor expressed in CHO cells by measuring calcium mobilization; type: functional, cell-based
Muscarinic acetylcholine receptor M3, sequence (P20309 whole entry): as the sequence (P20309 whole entry, looked up, one chain of several) above

For `C[N+]1(C)[C@@H]2CC[C@H]1C[C@H](OC(=O)N(Cc1ccccc1)c1ccsc1)C2.[Br-]`, the IC50 [1] was 2.1 nM, the IC50 [2] was 10.9 nM and the Activity (Mus musculus [3]) was 85%. For the same compound, the Activity (Mus musculus [4]) was 80%, the Ratio IC50 [5] was 5.5 and the Ratio IC50 [6] was 1. The Activity (Mus musculus [7]) was 25% and the IC50 [8] was 2 nM.
